Source: the supplement of paper PMC8960247
Structures can show the parent of a compound that is named as a salt. ± gives the standard error.

Experiments:
621-103 (TSC2-rescued) = assay: relative viability vs DMSO; higher = less cytotoxic; details: serum: 10% FBS, 72 h
621-102 (TSC2-deficient) = assay: as above; details: serum: 10% FBS, 72 h
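Further: immortalized renal angiomyolipoma cells stably carrying empty vector or TSC2, dosed in 384-well plates in DMEM, viability normalized to vehicle-treated wells within each plate.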

| SMILES | relative viability (621-103 (TSC2-rescued); 0.0001 µM) | relative viability (621-103 (TSC2-rescued); 0.001 µM) | relative viability (621-103 (TSC2-rescued); 0.01 µM) | relative viability (621-103 (TSC2-rescued); 0.1 µM) | relative viability (621-103 (TSC2-rescued); 1 µM) | relative viability (621-103 (TSC2-rescued); 10 µM) | relative viability (621-102 (TSC2-deficient); 0.0001 µM) | relative viability (621-102 (TSC2-deficient); 0.001 µM) | relative viability (621-102 (TSC2-deficient); 0.01 µM) | relative viability (621-102 (TSC2-deficient); 0.1 µM) | relative viability (621-102 (TSC2-deficient); 1 µM) | relative viability (621-102 (TSC2-deficient); 10 µM) |
| --- | --- | --- | --- | --- | --- | --- | --- | --- | --- | --- | --- | --- |
| CCN1CCN(C(=O)Cc2ccc(Nc3ncc(F)c(Nc4ccc(C(=O)Nc5ccccc5Cl)cc4)n3)cc2)CC1 [Aurora A Inhibitor I] | 101 ± 0.28% | 100.7 ± 0.54% | 98.55 ± 0.77% | 99.54 ± 0.75% | 87.1 ± 2.3% | 0.915 ± 0.027% | 105.83 ± 0.089% | 113 ± 3.6% | 114 ± 3.2% | 105 ± 2.2% | 104 ± 1.4% | 0.786 ± 0.16% |
| CC(C)c1cc(C(C)C)c(CC(=O)NS(=O)(=O)Oc2c(C(C)C)cccc2C(C)C)c(C(C)C)c1 [Avasimibe (CI-1011)] | 108 ± 8.1% | 99.44 ± 0.32% | 105 ± 3.1% | 101 ± 0.45% | 97.89 ± 0.25% | 97.8 ± 3.3% | 106.2 ± 1% | 97.5 ± 2.1% | 95.2 ± 2.4% | 99.6 ± 1.3% | 104.3 ± 0.53% | 106 ± 3.6% |
| CNC(=O)c1ccccc1Sc1ccc2c(/C=C/c3ccccn3)n[nH]c2c1 [Axitinib] | 86.7 ± 7.2% | 97.7 ± 3.4% | 100 ± 0.42% | 102 ± 1.1% | 98.7 ± 1.9% | 40.7 ± 1.5% | 102 ± 3.9% | 104 ± 1.7% | 113 ± 0.88% | 109 ± 3.8% | 103.5 ± 0.7% | 55 ± 0.8% |
| CN1CCCC(n2nc(Cc3ccc(Cl)cc3)c3ccccc3c2=O)CC1 (stereo not given) [Azelastine HCl (Astelin)] | 101 ± 3.8% | 92.3 ± 4.6% | 98.15 ± 0.86% | 100 ± 6.5% | 102 ± 2.2% | 68.28 ± 0.32% | 111 ± 0.65% | 114 ± 4.5% | 103 ± 4.9% | 109 ± 1.6% | 106.8 ± 0.17% | 90.43 ± 0.82% |
| CNC(=O)c1cc(Oc2ccc(NC(=O)Nc3ccc(Cl)c(C(F)(F)F)c3)c(F)c2)ccn1 [BAY 73-4506 (Regorafenib)] | 98.01 ± 0.19% | 99.11 ± 0.79% | 99.9 ± 2.3% | 102 ± 1.6% | 100 ± 1.8% | 63.55 ± 0.47% | 109 ± 1.5% | 93.9 ± 5.3% | 99.5 ± 0.71% | 98.4 ± 2.8% | 102 ± 1.4% | 88.2 ± 1.8% |
| CC[C@@H]1C(=O)N(C)c2cnc(Nc3ccc(C(=O)N[C@H]4CC[C@H](N5CCN(CC6CC6)CC5)CC4)cc3OC)nc2N1C(C)C [BI6727 (Volasertib)] | 76.3 ± 0.95% | 61.81 ± 0.53% | 53.6 ± 0.88% | 49 ± 2% | 44.3 ± 1.4% | 5.99 ± 0.27% | 96.1 ± 4.3% | 72.9 ± 4.5% | 59.6 ± 3% | 42.4 ± 0.63% | 41.9 ± 0.7% | 1.64 ± 0.065% |
| CC[C@@H]1C(=O)N(C)c2cnc(Nc3ccc(C(=O)NC4CCN(C)CC4)cc3OC)nc2N1C1CCCC1 [BI 2536] | 98.6 ± 1.3% | 66.74 ± 0.51% | 53 ± 1.2% | 43.5 ± 1.5% | 50.6 ± 0.58% | 13 ± 0.48% | 98.2 ± 3.1% | 80.3 ± 1.5% | 47.9 ± 1.7% | 44.6 ± 1.5% | 51.66 ± 0.21% | 29 ± 0.68% |
| COC(=O)c1ccc2c(C(=Nc3ccc(N(C)C(=O)CN4CCN(C)CC4)cc3)c3ccccc3)c(O)[nH]c2c1 [BIBF1120 (Vargatef)] | 86 ± 5.4% | 97.2 ± 3.1% | 103.3 ± 0.75% | 98.9 ± 3.9% | 96.9 ± 2.5% | 82 ± 2.1% | 101 ± 2.6% | 111 ± 5.3% | 112 ± 1.5% | 108 ± 3.1% | 105 ± 1.7% | 95.8 ± 1.2% |
| C/C(=C\C(=O)Nc1ccccc1C(=O)O)c1ccc2ccccc2c1 [BIBR1532] | 110 ± 3.1% | 98.3 ± 5% | 104.2 ± 0.53% | 103 ± 1.3% | 99.8 ± 0.11% | 96.4 ± 1.2% | 93.51 ± 0.69% | 98.3 ± 0.93% | 112 ± 5.2% | 105.7 ± 1% | 95.36 ± 0.93% | 87.4 ± 2.7% |
| Cn1c(CNc2ccc(C(=N)N)cc2)nc2cc(C(=O)N(CCC(=O)O)c3ccccn3)ccc21 [BIBR 953] | 78 ± 9% | 76.5 ± 10% | 82.8 ± 11% | 94.1 ± 7.3% | 88.3 ± 6.7% | 91.3 ± 4.6% | 64.4 ± 4.5% | 77.2 ± 5.6% | 90.2 ± 2.2% | 88.6 ± 4.5% | 82.7 ± 9.1% | 81 ± 4.6% |
